For 15 compounds, TGI and GI50 results are on record in PubChem BioAssay (NCI).

Test systems include HS 578T breast; HT29 colon; OVCAR-4 ovarian; SF-268 CNS; SK-OV-3 ovarian; SN12C renal; TK-10 renal; UACC-257 melanoma; UACC-62 melanoma; A549 NSCLC.
Test in all cases: DTP human tumour cell line panel, 48 h

The TGI is the concentration giving total growth inhibition. A low value points to more potent growth arrest. What is called GI50 is the concentration giving 50% growth inhibition.

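Step 1: Grow cells in 96-well plates. Step 2: Expose to compound for 48 hours at 5 concentrations. Step 3: Interpolate endpoints linearly; if unreached, use highest concentration. Abbreviation: GI50, concentration required for 50% inhibition of growth. Definition used: TGI = concentration required for complete inhibition of growth.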

For `COC(OC)[C@@H]1OC[C@@H](O)[C@@H]1n1cnc2c(N)ncnc21`, the TGI in the test on HS 578T breast, in the test with HT29 colon, in the test on OVCAR-4 ovarian, with SF-268 CNS, in the test with SK-OV-3 ovarian and in the test on SN12C renal was greater than 100 µM each time. The TGI in the test on TK-10 renal, in the test on UACC-257 melanoma and in the test with UACC-62 melanoma was greater than 100 µM in each case.
As to `O=C(NNc1nc(-c2ccccc2)cs1)C(F)(F)F`, the TGI was greater than 100 µM in the test on A549 NSCLC; 52.2 µM in the test with HS 578T breast; greater than 100 µM with HT29 colon; greater than 100 µM in the test with OVCAR-4 ovarian; greater than 100 µM with SF-268 CNS; greater than 100 µM in the test with SK-OV-3 ovarian. Also, the TGI in the test with SN12C renal, in the test with UACC-257 melanoma and with UACC-62 melanoma was greater than 100 µM each time.
Take `C[C@@H]1S[C@H](c2c(Cl)cccc2Cl)N2Cc3ccccc3N=C12`: the TGI in the test with A549 NSCLC, in the test with HS 578T breast, in the test with OVCAR-4 ovarian, in the test with SF-268 CNS, in the test on SK-OV-3 ovarian and with SN12C renal was greater than 100 µM throughout. For the same compound, the TGI in the test with TK-10 renal, with UACC-257 melanoma and with UACC-62 melanoma was greater than 100 µM throughout.
Take `O=C(Nc1ccccc1)c1cc(S(=O)(=O)N2CCNNC2=O)c(S)cc1Cl`: the TGI in the test with A549 NSCLC, in the test on HS 578T breast, with OVCAR-4 ovarian, in the test with SF-268 CNS, in the test on SN12C renal and with TK-10 renal was greater than 100 µM in each case. The total growth inhibition concentration (TGI) in the test with UACC-257 melanoma and in the test on UACC-62 melanoma was greater than 100 µM each time.
Turning to `Cc1ccccc1NC(=O)Cc1csc2[n+]1C(=O)/C(=C/c1ccc([N+](=O)[O-])cc1)S2`, the TGI was greater than 100 µM in the test on A549 NSCLC; greater than 100 µM in the test with HT29 colon; 35.3 µM with OVCAR-4 ovarian; greater than 100 µM in the test with SK-OV-3 ovarian; greater than 100 µM with SN12C renal; 56.3 µM in the test on TK-10 renal. This compound came in with a TGI in the test on UACC-257 melanoma greater than 100 µM.
Consider `CC1(C)CC(=O)C2=C(C1)OC1=C(CC(C)(C)CC1=O)C2c1ccccc1[N+](=O)[O-]` (stereo unspecified), for which the TGI with A549 NSCLC, with HS 578T breast, in the test with HT29 colon, with OVCAR-4 ovarian, in the test on SF-268 CNS and with SK-OV-3 ovarian was greater than 100 µM in each case. The TGI with SN12C renal, with TK-10 renal and in the test on UACC-62 melanoma was greater than 100 µM in each case.
As for `CCn1c(SCC(=O)NNC(=S)NC)nc2ccccc2c1=O`, the TGI with A549 NSCLC, in the test with HS 578T breast, in the test with OVCAR-4 ovarian, in the test with SF-268 CNS, in the test on SK-OV-3 ovarian and in the test on SN12C renal was greater than 100 µM each time. The TGI in the test with TK-10 renal, with UACC-257 melanoma and with UACC-62 melanoma was greater than 100 µM throughout.
Regarding `Cc1nc2ccccc2c(/C=C/c2ccc(Cl)cc2)c1C(=O)/C=C/c1ccc(Cl)cc1`, the values for the GI50 in the test on HS 578T breast, in the test with HT29 colon and in the test on UACC-62 melanoma were 2060 nM, 739 nM and 1590 nM, respectively. The TGI is 5.97 µM with HS 578T breast, greater than 100 µM in the test on HT29 colon and 3.27 µM with UACC-62 melanoma.
Consider `C=CCOCn1cc(C)c(=O)[nH]c1=O`, for which the TGI in the test on A549 NSCLC, in the test with HS 578T breast, in the test on HT29 colon, in the test with SF-268 CNS, in the test on SK-OV-3 ovarian and in the test on SN12C renal was greater than 100 µM each time. In addition, the concentration for total growth inhibition (TGI) in the test on TK-10 renal, in the test with UACC-257 melanoma and with UACC-62 melanoma was greater than 100 µM in each case.
As for `O=C(NC(=S)NC(=O)c1cc(O)c(O)c(O)c1)c1cc(O)c(O)c(O)c1`, the TGI in the test on A549 NSCLC was greater than 100 µM; in the test with HT29 colon, 65.5 µM; in the test on OVCAR-4 ovarian it was 46.1 µM; with SF-268 CNS, greater than 100 µM; with SK-OV-3 ovarian it was greater than 100 µM; in the test on SN12C renal, 53.7 µM. The values for the TGI in the test on TK-10 renal, in the test with UACC-257 melanoma and in the test with UACC-62 melanoma were 61.3 µM, 44.8 µM and 49.4 µM, respectively.
For the compound `O=C(OCC(Cl)(Cl)Cl)O[C@@H]1CCCC1(c1ccccc1)c1ccccc1`, the TGI in the test on A549 NSCLC, with HT29 colon, in the test with OVCAR-4 ovarian, in the test with SF-268 CNS, in the test with SK-OV-3 ovarian and in the test with SN12C renal was greater than 100 µM throughout. Moreover, the total growth inhibition concentration (TGI) with TK-10 renal, in the test on UACC-257 melanoma and in the test on UACC-62 melanoma was greater than 100 µM each time.
Turning to `CN(C)c1cccc(NC2=NCCO2)c1`, the TGI was greater than 100 µM in the test on A549 NSCLC; greater than 100 µM in the test with HS 578T breast; 47.4 µM in the test on HT29 colon; greater than 100 µM in the test on OVCAR-4 ovarian; greater than 100 µM with SF-268 CNS; greater than 100 µM in the test on SN12C renal. Also, the TGI in the test with TK-10 renal, in the test with UACC-257 melanoma and in the test on UACC-62 melanoma was greater than 100 µM in each case.
With `CCN(CC)c1ccc2cc(C(=O)Nc3ccccn3)c(=N)oc2c1`, the TGI in the test with A549 NSCLC was greater than 100 µM; with HS 578T breast, 88.5 µM; in the test with HT29 colon, greater than 100 µM; in the test on OVCAR-4 ovarian it was greater than 100 µM; with SF-268 CNS, greater than 100 µM; with SK-OV-3 ovarian, greater than 100 µM. Moreover, the TGI in the test on SN12C renal, in the test on UACC-257 melanoma and in the test with UACC-62 melanoma was greater than 100 µM throughout.
On to `O=c1cnn(CCOCP(=O)(O)O)c(=O)[nH]1`, for which the TGI in the test with A549 NSCLC, in the test on HS 578T breast, with HT29 colon, in the test with SF-268 CNS, in the test on SN12C renal and in the test on TK-10 renal was greater than 100 µM throughout. The compound further had a TGI in the test on UACC-257 melanoma greater than 100 µM.
As to `CC1C(c2ccc(Cl)cc2)c2cc3c(cc2OC1N1CCOCC1)OCO3` (stereo unspecified), the TGI is greater than 100 µM with A549 NSCLC; 70.4 µM in the test on HS 578T breast; greater than 100 µM with HT29 colon; greater than 100 µM in the test on SF-268 CNS; greater than 100 µM in the test with SN12C renal; greater than 100 µM in the test with TK-10 renal. In addition, the TGI in the test with UACC-257 melanoma and with UACC-62 melanoma was greater than 100 µM each time.
